# Experimental data: PubChem BioAssay (NCI)
#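 These data come from cells grown in 96-well plates and exposed to compound for 48 hours at five concentrations. TGI marks complete inhibition of growth.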
# Columns and labels:
# Test in all cases: inhibition of tumour cell growth, NCI panel, 48 h
# 786-0 renal = tested on: 786-0 renal
# A498 renal = tested on: A498 renal
# A549 NSCLC = tested on: A549 NSCLC
# ACHN renal = tested on: ACHN renal
# BT-549 breast = tested on: BT-549 breast
# CAKI-1 renal = tested on: CAKI-1 renal
# CCRF-CEM leukemia = tested on: CCRF-CEM leukemia
# COLO 205 colon = tested on: COLO 205 colon
# DU-145 prostate = tested on: DU-145 prostate
# EKVX NSCLC = tested on: EKVX NSCLC
# HCC-2998 colon = tested on: HCC-2998 colon
# HCT-116 colon = tested on: HCT-116 colon
# HCT-15 colon = tested on: HCT-15 colon
# HOP-62 NSCLC = tested on: HOP-62 NSCLC
# HOP-92 NSCLC = tested on: HOP-92 NSCLC
# HS 578T breast = tested on: HS 578T breast
# HT29 colon = tested on: HT29 colon
# IGROV1 ovarian = tested on: IGROV1 ovarian
# K-562 leukemia = tested on: K-562 leukemia
# KM12 colon = tested on: KM12 colon
# M14 melanoma = tested on: M14 melanoma
# MALME-3M melanoma = tested on: MALME-3M melanoma
# MCF7 breast = tested on: MCF7 breast
# MDA-MB-231 breast = tested on: MDA-MB-231 breast
# MDA-MB-435 = tested on: MDA-MB-435
# MDA-N = tested on: MDA-N
# MOLT-4 leukemia = tested on: MOLT-4 leukemia
# NCI-H226 lung = tested on: NCI-H226 lung
# NCI-H23 lung = tested on: NCI-H23 lung
# NCI-H460 lung = tested on: NCI-H460 lung
# NCI-H522 lung = tested on: NCI-H522 lung
# NCI/ADR-RES ovarian = tested on: NCI/ADR-RES ovarian
# OVCAR-3 ovarian = tested on: OVCAR-3 ovarian
# OVCAR-4 ovarian = tested on: OVCAR-4 ovarian
# OVCAR-5 ovarian = tested on: OVCAR-5 ovarian
# OVCAR-8 ovarian = tested on: OVCAR-8 ovarian
# PC-3 prostate = tested on: PC-3 prostate
# RXF 393 renal = tested on: RXF 393 renal
# SF-268 CNS = tested on: SF-268 CNS
# SF-295 CNS = tested on: SF-295 CNS
# SK-MEL-2 melanoma = tested on: SK-MEL-2 melanoma
# SK-MEL-28 melanoma = tested on: SK-MEL-28 melanoma
# SK-MEL-5 melanoma = tested on: SK-MEL-5 melanoma
# SK-OV-3 ovarian = tested on: SK-OV-3 ovarian
# SN12C renal = tested on: SN12C renal
# SNB-19 CNS = tested on: SNB-19 CNS
# SNB-75 CNS = tested on: SNB-75 CNS
# SR leukemia = tested on: SR leukemia
# SW-620 colon = tested on: SW-620 colon
# T-47D breast = tested on: T-47D breast
# TK-10 renal = tested on: TK-10 renal
# U251 CNS = tested on: U251 CNS
# UACC-257 melanoma = tested on: UACC-257 melanoma
# UACC-62 melanoma = tested on: UACC-62 melanoma
# UO-31 renal = tested on: UO-31 renal
structure (smiles),measurement,setting,value
CCCCC/C=C1\CC(CO)(COC(=O)CC(C(C)C)C(C)C)OC1=O (stereo not given),TGI,786-0 renal,30.3 µM
same,TGI,A498 renal,33.7 µM
same,TGI,A549 NSCLC,28.8 µM
same,TGI,ACHN renal,28.7 µM
same,TGI,BT-549 breast,31 µM
same,TGI,CAKI-1 renal,24.3 µM
same,TGI,CCRF-CEM leukemia,> 100 µM
same,TGI,COLO 205 colon,15.3 µM
same,TGI,DU-145 prostate,44.9 µM
same,TGI,EKVX NSCLC,30.3 µM
same,TGI,HCC-2998 colon,32.6 µM
same,TGI,HCT-116 colon,44.4 µM
same,TGI,HCT-15 colon,38.9 µM
same,TGI,HOP-62 NSCLC,21.1 µM
same,TGI,HOP-92 NSCLC,20.9 µM
same,TGI,HS 578T breast,18.3 µM
same,TGI,HT29 colon,40.1 µM
same,TGI,IGROV1 ovarian,31.8 µM
same,TGI,K-562 leukemia,44.2 µM
same,TGI,KM12 colon,28.3 µM
same,TGI,M14 melanoma,32.4 µM
same,TGI,MALME-3M melanoma,31.9 µM
same,TGI,MCF7 breast,39.3 µM
same,TGI,MDA-MB-231 breast,40.2 µM
same,TGI,MDA-MB-435,22 µM
same,TGI,MDA-N,26.4 µM
same,TGI,MOLT-4 leukemia,54.1 µM
same,TGI,NCI-H226 lung,27.2 µM
same,TGI,NCI-H23 lung,36.4 µM
same,TGI,NCI-H460 lung,> 100 µM
same,TGI,NCI-H522 lung,33.6 µM
same,TGI,NCI/ADR-RES ovarian,47 µM
same,TGI,OVCAR-3 ovarian,32.3 µM
same,TGI,OVCAR-4 ovarian,46.5 µM
same,TGI,OVCAR-5 ovarian,27.7 µM
same,TGI,OVCAR-8 ovarian,32.1 µM
same,TGI,PC-3 prostate,27.5 µM
same,TGI,RXF 393 renal,33.9 µM
same,TGI,SF-268 CNS,35.5 µM
same,TGI,SF-295 CNS,20 µM
same,TGI,SK-MEL-2 melanoma,49 µM
same,TGI,SK-MEL-28 melanoma,36.2 µM
same,TGI,SK-MEL-5 melanoma,22.9 µM
same,TGI,SK-OV-3 ovarian,38.7 µM
same,TGI,SN12C renal,31.8 µM
same,TGI,SNB-19 CNS,30.3 µM
same,TGI,SNB-75 CNS,26.8 µM
same,TGI,SR leukemia,> 100 µM
same,TGI,SW-620 colon,> 100 µM
same,TGI,T-47D breast,55.1 µM
same,TGI,TK-10 renal,36.8 µM
same,TGI,U251 CNS,31.6 µM
same,TGI,UACC-257 melanoma,45.6 µM
same,TGI,UACC-62 melanoma,39 µM
same,TGI,UO-31 renal,28.6 µM
